Source: patent publication US8063065B2, “Azaindazole compounds as CCR1 receptor antagonists” (Boehringer Ingelheim International GmbH, priority 2008, dated 2011)

biological target: T1, CCR1 (Homo sapiens, UniProt P32246); assay: Method B: calcium flux in CCR1 transfected cells (Calcium 4 dye, […] FDSS6000), block of the CCR1/MIP-1α interaction; type: cell-based; settings: Method B: Calcium 4 dye, MIP-1alpha at EC80
T1 sequence (P32246 1-355): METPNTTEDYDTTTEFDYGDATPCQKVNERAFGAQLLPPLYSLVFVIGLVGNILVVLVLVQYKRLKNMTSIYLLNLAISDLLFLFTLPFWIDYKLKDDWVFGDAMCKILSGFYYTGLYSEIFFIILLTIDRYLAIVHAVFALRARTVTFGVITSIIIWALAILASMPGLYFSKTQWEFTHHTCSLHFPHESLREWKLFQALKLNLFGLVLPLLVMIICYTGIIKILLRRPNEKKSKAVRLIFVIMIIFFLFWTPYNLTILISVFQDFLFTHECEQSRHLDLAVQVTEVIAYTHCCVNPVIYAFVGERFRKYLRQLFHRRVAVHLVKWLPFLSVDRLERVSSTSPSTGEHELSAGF
Summary of the method: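 Calcium flux on an FDSS6000 was triggered by MIP-1α at its EC80 in stably CCR1/G-alpha-16-expressing non-adherent cells. Before this, Calcium 4-loaded cells were preincubated with compound in HBSS, 20 mM HEPES pH 7.4, 1% DMSO: 30 min at 37 C plus 30 min at room temperature. Ten 4-fold doses began at 3,000 nM, with ±MIP-1α DMSO wells as controls.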

IC50 [nM]	Structure (SMILES)
0.2	CC[C@H](NC(=O)c1cncc2c1cnn2-c1ccc(F)cc1)c1cc(N(C)C)nc(S(C)(=O)=O)c1 [1-(4-Fluorophenyl)-1H-pyrazolo[3,4-c]pyridine-4-carboxylic acid [(S)-1-(2-dimethylamino-6-methanesulfonyl-pyridin-4-yl)-propyl]-amide]
23	CC[C@H](NC(=O)c1cncc2c1cnn2-c1ccc(F)cc1)c1ccccn1 [1-(4-Fluorophenyl)-1H-pyrazolo[3,4-c]pyridine-4-carboxylic acid ((S)-1-pyridin-2-yl-propyl)-amide]
8	CC[C@H](NC(=O)c1cncc2c1cnn2-c1ccc(F)cc1)c1ccnc(N2CCN(C)CC2)c1 [1-(4-Fluorophenyl)-1H-pyrazolo[3,4-c]pyridine-4-carboxylic acid {(S)-1-[2-(4-methyl-piperazin-1-yl)-pyridin-4-yl]-propyl}-amide]
1	CC[C@H](NC(=O)c1cncc2c1cnn2-c1ccc(F)cc1)c1ccc(S(C)(=O)=O)nc1 [1-(4-Fluorophenyl)-1H-pyrazolo[3,4-c]pyridine-4-carboxylic acid [(S)-1-(6-methanesulfonyl-pyridin-3-yl)-propyl]-amide]
0.2	CC[C@H](NC(=O)c1cncc2c1cnn2-c1ccc(F)cc1)c1ccc(S(C)(=O)=O)s1 [1-(4-Fluorophenyl)-1H-pyrazolo[3,4-c]pyridine-4-carboxylic acid [(S)-1-(5-methanesulfonyl-thiophen-2-yl)-propyl]-amide]
11	CS(=O)(=O)c1cc([C@H](CC(O)CO)NC(=O)c2cncc3c2cnn3-c2ccc(F)cc2)ccn1 (single isomer, unassigned)
24	C[C@H](NC(=O)c1cncc2c1cnn2-c1ccc(F)cc1)c1nc(Br)cs1 [1-(4-Fluorophenyl)-1H-pyrazolo[3,4-c]pyridine-4-carboxylic acid [(S)-1-(4-bromo-thiazol-2-yl)-ethyl]-amide]
11	CC[C@H](NC(=O)c1cncc2c1cnn2-c1ccc(F)cc1)c1ccnc(N(C)C2CCNCC2)c1 [1-(4-Fluorophenyl)-1H-pyrazolo[3,4-c]pyridine-4-carboxylic acid {(S)-1-[2-(methyl-piperidin-4-yl-amino)-pyridin-4-yl]-propyl}-amide]
0.2	CC[C@H](NC(=O)c1cncc2c1cnn2-c1ccc(F)cc1)c1cc(NC(C)C)nc(S(C)(=O)=O)c1 [1-(4-Fluorophenyl)-1H-pyrazolo[3,4-c]pyridine-4-carboxylic acid [(S)-1-(2-isopropylamino-6-methanesulfonyl-pyridin-4-yl)-propyl]-amide]
0.2	CC[C@H](NC(=O)c1cncc2c1cnn2-c1ccc(F)cc1)c1ccnc(S(=O)(=O)CC)c1 [1-(4-Fluorophenyl)-1H-pyrazolo[3,4-c]pyridine-4-carboxylic acid [(S)-1-(2-ethanesulfonyl-pyridin-4-yl)-propyl]-amide]
0.6	C[C@H](NC(=O)c1cncc2c1cnn2-c1ccc(F)cc1)c1cc(NCC(N)=O)nc(S(C)(=O)=O)c1 [1-(4-Fluorophenyl)-1H-pyrazolo[3,4-c]pyridine-4-carboxylic acid {(S)-1-[2-(carbamoylmethyl-amino)-6-methanesulfonyl-pyridin-4-yl]-ethyl}-amide]
3	CC[C@H](NC(=O)c1cncc2c1cnn2-c1ccc(F)cc1)c1ccnc(CO)c1 [1-(4-Fluorophenyl)-1H-pyrazolo[3,4-c]pyridine-4-carboxylic acid [(S)-1-(2-hydroxymethyl-pyridin-4-yl)-propyl]-amide]
0.2	CC[C@H](NC(=O)c1cncc2c1cnn2-c1ccc(F)cc1)c1ccc(O)c(S(C)(=O)=O)c1 [1-(4-Fluorophenyl)-1H-pyrazolo[3,4-c]pyridine-4-carboxylic acid [(S)-1-(4-hydroxy-3-methanesulfonyl-phenyl)-propyl]-amide]
25	CCOC(=O)Cn1cc([C@H](CC)NC(=O)c2cncc3c2cnn3-c2ccc(F)cc2)cn1 [[4-((S)-1-{[1-(4-Fluorophenyl)-1H-pyrazolo[3,4-c]pyridine-4-carbonyl]-amino}-propyl)-pyrazol-1-yl]-acetic acid ethyl ester]
0.5	CC[C@H](NC(=O)c1cncc2c1cnn2-c1ccc(F)cc1)c1ccc(Br)c(OC)c1 [1-(4-Fluorophenyl)-1H-pyrazolo[3,4-c]pyridine-4-carboxylic acid [(S)-1-(4-bromo-3-methoxy-phenyl)-propyl]-amide]
0.4	CC[C@H](NC(=O)c1cncc2c1cnn2-c1ccc(F)cc1)c1cc(NCC(N)=O)nc(S(C)(=O)=O)c1 [1-(4-Fluorophenyl)-1H-pyrazolo[3,4-c]pyridine-4-carboxylic acid {(S)-1-[2-(carbamoylmethyl-amino)-6-methanesulfonyl-pyridin-4-yl]-propyl}-amide]

IC50 [nM]	Structure (SMILES)
5	CC[C@H](NC(=O)c1cncc2c1cnn2-c1ccc(F)cc1)c1ccnc(N(C)C(C)=O)c1 [1-(4-Fluorophenyl)-1H-pyrazolo[3,4-c]pyridine-4-carboxylic acid {(S)-1-[2-(acetyl-methyl-amino)-pyridin-4-yl]-propyl}-amide]
6	CCS(=O)(=O)c1ccc([C@H](C)NC(=O)c2cncc3c2cnn3-c2ccc(F)cc2)cn1 [1-(4-Fluorophenyl)-1H-pyrazolo[3,4-c]pyridine-4-carboxylic acid [(S)-1-(6-ethanesulfonyl-pyridin-3-yl)-ethyl]-amide]
0.2	CC[C@H](NC(=O)c1cncc2c1cnn2-c1ccc(F)cc1)c1cccc(Br)n1 [1-(4-Fluorophenyl)-1H-pyrazolo[3,4-c]pyridine-4-carboxylic acid [(S)-1-(6-bromopyridin-2-yl)-propyl]-amide]
2	CCC(NC(=O)c1cncc2c1cnn2-c1ccc(F)cc1)C1CCCN(S(C)(=O)=O)C1 (centres unmarked) [1-(4-Fluorophenyl)-1H-pyrazolo[3,4-c]pyridine-4-carboxylic acid [1-(1-methanesulfonyl-piperidin-3-yl)-propyl]-amide]
16	CCC(CC)(NC(=O)c1cncc2c1cnn2-c1ccc(F)cc1)c1ccnc(S(C)(=O)=O)c1 [1-(4-Fluorophenyl)-1H-pyrazolo[3,4-c]pyridine-4-carboxylic acid [1-ethyl-1-(2-methanesulfonyl-pyridin-4-yl)-propyl]-amide]
0.3	C=CC[C@H](NC(=O)c1cncc2c1cnn2-c1ccc(F)cc1)c1ccnc(S(C)(=O)=O)c1 [1-(4-Fluorophenyl)-1H-pyrazolo[3,4-c]pyridine-4-carboxylic acid [(S)-1-(2-methanesulfonyl-pyridin-4-yl)-but-3-enyl]-amide]
19	O=C(NCc1ccc(Br)s1)c1cncc2c1cnn2-c1ccc(F)cc1 [1-(4-Fluorophenyl)-1H-pyrazolo[3,4-c]pyridine-4-carboxylic acid (5-bromo-thiophen-2-ylmethyl)-amide]
0.5	CC[C@H](NC(=O)c1cncc2c1cnn2-c1ccc(F)cc1)c1cccc(S(=O)(=O)CC)n1 [1-(4-Fluorophenyl)-1H-pyrazolo[3,4-c]pyridine-4-carboxylic acid [(S)-1-(6-ethanesulfonyl-pyridin-2-yl)-propyl]-amide]
3	CC[C@H](NC(=O)c1cncc2c1cnn2-c1ccc(F)cc1)c1ccn(S(=O)(=O)c2ccc(C)cc2)c1 [1-(4-Fluorophenyl)-1H-pyrazolo[3,4-c]pyridine-4-carboxylic acid {(S)-1-[1-(toluene-4-sulfonyl)-1H-pyrrol-3-yl]-propyl}-amide]
2	O=C(N[C@@H](CO)c1ccnc(Br)c1)c1cncc2c1cnn2-c1ccc(F)cc1 [1-(4-Fluorophenyl)-1H-pyrazolo[3,4-c]pyridine-4-carboxylic acid [(R)-1-(2-bromo-pyridin-4-yl)-2-hydroxy-ethyl]-amide]
0.6	CC[C@H](NC(=O)c1cncc2c1cnn2-c1ccc(F)cc1)c1ccnc([S@@+](C)[O-])c1 [1-(4-Fluorophenyl)-1H-pyrazolo[3,4-c]pyridine-4-carboxylic acid {(S)-1-[2-((R)-methanesulfinyl)-pyridin-4-yl]-propyl}-amide]
2	CN(c1ncc(CNC(=O)c2cncc3c2cnn3-c2ccc(F)cc2)cn1)S(C)(=O)=O [1-(4-Fluorophenyl)-1H-pyrazolo[3,4-c]pyridine-4-carboxylic acid [2-(methanesulfonyl-methyl-amino)-pyrimidin-5-ylmethyl]-amide]
6	CC[C@H](NC(=O)c1cncc2c1cnn2-c1ccc(F)cc1)c1cc(S(C)(=O)=O)co1 [1-(4-Fluorophenyl)-1H-pyrazolo[3,4-c]pyridine-4-carboxylic acid [(S)-1-(4-methanesulfonyl-furan-2-yl)-propyl]-amide]
26	CCC(NC(=O)c1cncc2c1cnn2-c1ccc(F)cc1)c1nc(C(N)=O)c(C)o1 (centres unmarked) [1-(4-Fluorophenyl)-1H-pyrazolo[3,4-c]pyridine-4-carboxylic acid [1-(4-carbamoyl-5-methyl-oxazol-2-yl)-propyl]-amide]
1	C[C@H](NC(=O)c1cncc2c1cnn2-c1ccc(F)cc1)c1cccc(S(C)(=O)=O)c1 [1-(4-Fluorophenyl)-1H-pyrazolo[3,4-c]pyridine-4-carboxylic acid [(S)-1-(3-methanesulfonyl-phenyl)-ethyl]-amide]
29	CCC(CC)(NC(=O)c1cncc2c1cnn2-c1ccc(F)cc1)c1ccnc(Br)c1 [1-(4-Fluorophenyl)-1H-pyrazolo[3,4-c]pyridine-4-carboxylic acid [1-(2-bromo-pyridin-4-yl)-1-ethyl-propyl]-amide]
